From PMC10145360, “Antiplatelet Aggregation Properties of Cirsilineol: A Novel Inhibitor of Blood Coagulation Factor Xa” (Pharmaceuticals, 2023)

What was measured:
[1] = system: human platelet-rich plasma (PRP); test: In vitro agonist-induced platelet aggregation (aggregometer); format: cell-based
Method: Figure 3 Effects of CSL on agonist-induced platelet aggregation. Platelet-rich plasma (PRP) was preincubated for 5 min with different concentrations of CSL, Riva, or the vehicle. […] Data are shown as mean values ± SD of five independent experiments. * p < 0.05 vs. D. D = 0.2% DMSO, used as the vehicle control.
Ten fasting healthy volunteers (aged 24–28; six women and four men) who were free of allergies, cardiovascular problems, carbohydrate, or lipid metabolic abnormalities and had not taken any morning medication had their blood samples taken. None of our subjects used addictive drugs or antioxidant food supplements, and their diets were well balanced. The plasma from the blood samples was immediately spun down (1300× g for 15 min) to separate it from sodium citrate (10.9 mM) and pooled for the following investigations. Next, human blood samples were spun down at room temperature to rapidly separate the PRP. The PRP concentration was adjusted to 1 × 10^9 platelets/mL using a hemocytometer. After being rinsed once in HEPES buffer containing 1 mM CaCl2, the PRP pellet was maintained at room temperature for an additional 30 min. Then, 10 mL of the platelet samples were utilized to measure each clotting time point. The IRB of Kyungpook National University Hospital (Daegu, Republic of Korea) approved this study protocol (KNUH 2012-01-010).
CSL dissolved in DMSO was incubated with human PRP for a specified time (1, 3, 5, or 10 min). […]

PRP = test: FXa-induced platelet aggregation; format: cell-based, human; conditions: FXa 52 µg/mL; PRP preincubated 5 min
Method: Figure 5 Effects of CSL on the catalytic activity and production of FXa. […] Plots show the average values of five independent measurements. (B) HUVECs pre-incubated with the indicated concentrations of CSL for 10 min were stimulated with TNF-α (10 ng/mL) for 6 h and incubated with FX (175 nM) and FVIIa (10 nM) with/without anti-tissue factor antibody (25 µg/mL). The production of FXa was characterized as described in the Methods section. (C) PRP was preincubated for 5 min with different concentrations of CSL, Riva, or the vehicle. Platelet aggregation was initiated with FXa (52 µg/mL), and the platelet aggregation was recorded using an aggregometer. Data are shown as mean values ± SD of five independent experiments. * p < 0.05 vs. TNF-α alone (B) or FXa (C). D = 0.2% DMSO, used as the vehicle control.
CSL dissolved in DMSO was incubated with human PRP for a specified time (1, 3, 5, or 10 min). Next, PRP was activated by the addition of collagen (1 μg/mL), ADP (10 μM), U46619 (6 μM), or thrombin (3 U/mL), and the amount of platelet aggregation was measured using an aggregometer (Chronolog, Havertown, PA, USA).

human platelets = test: Intracellular Ca2+ mobilization (Fura-2); format: cell-based; conditions: ADP 10 μM or U46619 6 μM; extracellular Ca2+ 1 mM
Method: Figure 6 Effects of CSL on activation of protein kinase CPKC activation and mobilization of intracellular calcium. (A) Rinsed platelets were incubated with DMSO or CSL (10 or 20 μM) for 10 min at 37 °C, and stimulation of ADP (10 μM, left) or U46619 (6 μM, right) was given for 1 min. The phosphorylation level of MARCKS in the platelets was determined with western blotting. Representative images from each group are shown (n = 3). Densitometric intensities of each signaling pathway component normalized to β-actin or total protein. (B,C) Human platelets preloaded with Fura-2 were incubated with DMSO (D) or CSL with extracellular Ca^2+ (1 mM) for 10 min at 37 °C, and ADP ((B) 10 μM) or U46619 ((C) 6 μM) stimulation was given to induce an increase in [Ca^2+]i. Data are shown as mean values ± SD of five independent experiments. * p < 0.05 vs. ADP (A,B) or U46619 (A,C) alone. D = 0.2% DMSO, used as the vehicle control.
The amount of intracellular Ca^2+ ([Ca^2+]i) of platelets was measured as previously described. […] Grynkiewicz et al. proposed an equation for calculating the [Ca^2+]i by measuring the intensity of fluorescence signals (excitation/emission wavelengths: 339/500 nm) obtained from the platelets.

platelets = test: P-selectin and PAC-1 expression, flow cytometry; format: cell-based, human; conditions: platelets activated by ADP or U46619; CSL 10 or 20 μM
Method: Figure 7 Effects of CSL on the expression of P-selectin and PAC-1 and the production of NO and ET-1. (A) Rinsed platelets were incubated with DMSO or CSL (10 or 20 μM) for 3 min at 37 °C, and stimulation of ADP ((A,C) 10 μM) or U46619 ((B,D) 6 μM) was given for 6 min. The expressions of P-selectin and PAC-1 (A,B) and the production of NO and ET-1 (C,D) were measured as described in the Methods section. Data are shown as mean values ± SD of five independent experiments. * p < 0.05 vs. (A,C) ADP or (B,D) U46619 alone. D = 0.2% DMSO, used as the vehicle control.
PAC-1 and P-selectin expression levels were assessed by modifying accepted techniques. Briefly, 20 μL of DMSO or CSL (10 to 20 μM) were incubated with 0.5 mL of cleaned platelets (2 × 10^8 platelets/mL) for 3 min. The platelet suspension was refrigerated at 4 °C after stimulation with ADP (10 μM) or U46619 (6 μM) for 6 min at 37 °C. Subsequently, 50 μL of the sample was mixed with activation-specific anti-PAC-1 and anti-CD61-PE in saturated concentrations, and the mixture was then incubated for 25 min in the dark to determine the expression of PAC-1. […] Finally, 5000 events were evaluated for each sample. The mean fluorescence intensities from each channel were expressed using BD Accuri C6 software (BD Biosciences, San Diego, CA, USA). […]

COc1cc(-c2cc(=O)c3c(O)c(OC)c(OC)cc3o2)ccc1O [CSL, 4,5-dihydroxy-3,6,7-trimethoxyflavone]
platelet aggregation induced by ADP ([1]; ADP 10 μM): significantly suppressed
platelet aggregation induced by U46619 ([1]; U46619 6 μM): significantly suppressed
platelet aggregation induced by collagen ([1]; collagen 1 μg/mL): significantly suppressed
platelet aggregation brought on by FXa (PRP): dramatically reduced
ADP- and U46619-induced elevations in [Ca2+]i (human platelets): inhibited
expression of P-selectin and PAC-1 (platelets): reduced the expression
